Test system: MDA-MB-435s (SK3+)
Assay: Cell migration / 2D motility assay (transwell inserts, wound healing)
Assay type: cell-based, human
Excerpt: Alternatively, the cell migration inhibitory activity of a compound of formula (I) may be assessed by performing a Wound Healing assay that is disclosed in the examples herein and for which the one skilled in the art may also refer to the article of Rodriguez et al. (2005, Methods Biol Mol, Vol. 294: 23-29). The wound-healing assay is simple, inexpensive, and one of the earliest developed methods to study directional cell migration in vitro. This method mimics cell migration during wound healing in vivo. The basic steps involve creating a “wound” in a cell monolayer, capturing the images at the beginning and at regular intervals during cell migration to close the wound, and comparing the images to quantify the migration rate of the cells. It is particularly suitable for studies on the effects of cell-matrix and cell-cell interactions on cell migration. Cells are seeded in culture dishes and grown until confluence in DMEM supplemented with 10% foetal calf serum. The monolayer is then scratched with a sterile yellow pipette tip. Then, migration of cells to the cleared area is inspected under a microscope. Pictures are taken directly at the time of scratching and after 24 h, so as to determine the ability of the tested cells to migrate.
Wound healing assay: Cells were seeded in culture dishes and grown until confluence in DMEM supplemented with 10% foetal calf serum. The monolayer was scratched with a sterile yellow pipette tip. The migration of cells to the cleared area was inspected under a microscope. Pictures were taken directly at the time of scratching and after 24 h.
At least three independent experiments were each performed in triplicate.

Substance: hexadecyloxy-2-O-methyl-sn-glycerol-lactose [JPH1701]
- Effect on motility of cells with shRNA random (SK3+) compared with wild type (MDA-MB-435s shRD, FIG. 6E): same inhibition effect
- Concentration from which cell migration is inhibited (MDA-MB-435s wild type, FIG. 6A): ≥ 10 nM
- Concentration of maximal effect on cell migration (MDA-MB-435s wild type, FIG. 6A): around 1 μM
- Cell Migration inhibition of MDA-MB-435s (SK3+), Inhibitory effect (Table 1, concentration 300 nM): 50%
- Migration (% of inhibition) (Table 2, concentration 300 nM): 50%
- Effect on cell migration (summary of table 2): even more effective
